In patent publication US20040048838A1, “Meiosis regulating compounds” (priority 1995, published 2004):

| melting point [°C] | Structure (SMILES) |
| --- | --- |
| 104.7 | CC(C)CCC[C@@H](C)[C@H]1CC=C2C3=C(CC[C@@]21C)[C@@]1(C)CC=CCC1CC3 (stereo partly drawn) |
| 192 to 195 | C[C@H](CCC(=O)N(C)C)[C@H]1CC=C2C3=C(CC[C@@]21C)[C@@]1(C)CC[C@H](O)C(C)(C)[C@@H]1CC3 |
| 180 to 181 | C[C@@H](CO)CCC[C@@H](C)[C@H]1CC=C2C3=C(CC[C@@]21C)[C@@]1(C)CC[C@H](O)C(C)(C)[C@@H]1CC3 |
| 145 to 145.5 | C[C@@H](CCl)CCC[C@@H](C)[C@H]1CC=C2C3=C(CC[C@@]21C)[C@@]1(C)CC[C@H](O)C(C)(C)[C@@H]1CC3 |
| 148 | C[C@@H](CI)CCC[C@@H](C)[C@H]1CC=C2C3=C(CC[C@@]21C)[C@@]1(C)CC[C@H](O)C(C)(C)[C@@H]1CC3 |
| 171 to 173 | CC(C)CCC[C@@H](C)[C@H]1[C@@H](O)C[C@H]2C3=CC=C4C(C)(C)[C@@H](O)CC[C@]4(C)[C@H]3CC[C@]12C |
